Measured values reported in patent US7915256B2, “Triazolopyrazine compounds useful for the treatment of degenerative and inflammatory diseases” (Galapagos NV, priority 2006, dated 2011).
Where two headings read alike, the source gives them in different places. Blank lines part the entries; values can stand above or below the compound they belong to.

Experiments:
[1] = target: T1, MAPKAPK5 (Homo sapiens, UniProt Q8IW41); experiment: MAPKAP-K5 assay (FlashPlate, 33P-ATP)
T1 sequence (Q8IW41 1-473): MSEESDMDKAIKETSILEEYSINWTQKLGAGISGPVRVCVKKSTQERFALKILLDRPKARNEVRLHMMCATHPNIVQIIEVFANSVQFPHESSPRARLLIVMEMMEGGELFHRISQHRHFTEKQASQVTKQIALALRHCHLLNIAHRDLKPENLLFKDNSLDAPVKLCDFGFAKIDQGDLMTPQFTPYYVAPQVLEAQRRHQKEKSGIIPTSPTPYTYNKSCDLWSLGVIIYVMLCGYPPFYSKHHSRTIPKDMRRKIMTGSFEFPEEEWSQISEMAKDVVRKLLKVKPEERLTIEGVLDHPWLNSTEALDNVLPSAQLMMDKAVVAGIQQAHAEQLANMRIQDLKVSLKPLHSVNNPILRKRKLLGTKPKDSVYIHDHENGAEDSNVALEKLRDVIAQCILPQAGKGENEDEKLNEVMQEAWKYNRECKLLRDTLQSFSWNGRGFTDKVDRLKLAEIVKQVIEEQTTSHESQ
Protocol: MAPKAP-K5 reactions are performed in FlashPlate format using 0.1 or 0.2 μCi 33P-ATP; 0.6 μM ATP; 1 mU MAPKAP-K5; 3 μM MAPKAP-K5 peptide substrate, incubated at room temperature for 30 minutes.
The MAPKAP-K5 kinase reaction is performed in a 384 well polypropylene plate (Matrix Technologies) and then transferred to a streptavidin-coated 384 well flashplate (Perkin-Elmer).
To wells containing 2 μL test compound or standard inhibitor, 13 μL Enzyme mix or diluent are added using a Hydra (Robbins Scientific).
Reactions are started by addition of 10 μL of [2,5×] substrate cocktail using a Multidrop (Thermo-Labsystems), to give final concentrations in the assay of:
Plates are incubated at room temperature for 30 minutes.
Reactions are terminated by the addition of 25 μL EDTA (50 mM) to each well using a Micro-fill (Biotek).
Reactions are transferred to a streptavidin-coated flashplate using a Zymark robotic system. Plates are incubated for 60 minutes at room temperature.
All wells are washed 3 times with 100 μl phosphate buffered saline using a Tecan plate washer.
Radioactivity is determined by scintillation counting of the flashplate (empty wells) on a Packard TopCount.
Enzyme Mix: • Enzyme • 50 mM Tris Hcl (pH 7.5) • 0.1 mM EGTA • 2 mM DTT • 1 mg/mL BSA
Reaction Buffer: • 50 mM Tris Hcl (pH 7.5) • 0.1 mM EGTA • 10 mM Magnesium acetate • 2 mM DTT

[2] = system: TNFα release by human PBMCs; experiment: Cytokine (TNFα) release by LPS stimulated human PBMCs, ELISA; type: cell-based; conditions: ELISA of supernatant
Protocol: For the assay PBMCs are seeded at 2.5E6 cells/mL in 160 μL in 96-well plates (Nunc). Serial dilution of the test compounds are made first in DMSO (Sigma) and then diluted 50-fold in M199 medium (Gibco) containing 1% heat-inactivated FBS. Compounds are further 1/10 diluted in the assay plates to obtain final DMSO concentration of 0.2%. Cells are preincubated with the compounds for 1 hr at 37° C., 5% CO2. Then, cells are stimulated with LPS (Escherichia coli serotype 026:B6, Cat. No. L2654, Sigma) that is added in a volume of 20 μL to a final concentration of 1 μg/mL and cells are further cultured for 24 hr. The plates are centrifuged and the supernatant is collected and stored at −80° C. until analysis of appropriate dilutions in ELISAs.
After 4 hr incubation at RT, blocking buffer is removed and plates are washed once with PBST (1×PBS with 0.05% Tween-20 (Sigma)). Then, 40 μL of sample is transferred to the ELISA plates and plates are incubated at 4° C. […] Readout is performed on the Luminoscan Ascent Luminometer (Labsystems) with an integration time of 100 msec delivering raw data (RLU: relative luminescence units). […] Where compounds are tested at 8 concentrations (1/3 serial dilution), EC50-values can be calculated by curve fitting of the means of the PIN data achieved for a compound at each test concentration.

[3] = system: MMP1 expression by activated synovial fibroblasts (RASFs); experiment: 'MMP assay': MMP1 ELISA on supernatant of complex trigger activated synovial fibroblasts; type: cell-based; conditions: Homo sapiens, Fibroblast, Table 4, 48 hrs
Protocol: A 384-well format ELISA for measurement of MMP1 is developed. Various primary antibodies are tested, as well as various ELISA protocols. […] The antibody is diluted in buffer 40 (1.21 g Tris base (Sigma), 0.58 g NaCl (Calbiochem) and 5 ml 10% NaN3 (Sigma) in 1 L milliQ water and adjusted to pH 8.5). After overnight incubation at 4° C., plates are washed with PBS (80 g NaCl, 2 g KCl (Sigma), 11.5 g Na2HPO4.7H2O and 2 g KH2PO4 in 10 L milliQ; pH 7.4) and blocked with 100 μL/well Casein buffer (2% Casein (VWR International) in PBS). Next day, casein buffer is removed from ELISA plates and replaced by 50 μL/well EC buffer (4 g casein, 2.13 g Na2HPO4 (Sigma), 2 g bovine albumin (Sigma), 0.69 g NaH2PO4.H2O (Sigma), 0.5 g CHAPS (Roche), 23.3 g NaCl, 4 ml 0.5 M EDTA pH 8 (Invitrogen), 5 ml 10% NaN3 in 1 L milliQ and adjusted to pH 7.0). 0.25 mM DTT (Sigma) is added to the thawed samples plates. After removal of the EC buffer, 20 μL of sample is transferred to the ELISA plates. After overnight incubation at 4° C. plates are washed twice with PBS and once with PBST (PBS with 0.05% Tween-20 (Sigma)) and incubated with 35 μL/well biotinylated anti-MMP1 antibody solution (R&D). This secondary antibody is diluted in buffer C (0.82 g NaH2PO4.H2O, 4.82 g Na2HPO4, 46.6 g NaCl, 20 g bovine albumin and 4 mL 0.5M EDTA pH 8 in 2 L milliQ and adjusted to pH 7.0) at a concentration of 5 μg/mL. After 2 h of incubation at RT, plates are washed as described above and incubated with 50 μL/well streptavidin-HRP conjugate (Biosource). Streptavidin-HRP conjugate is diluted in buffer C at a concentration of 0.25 μg/mL. After 45 min, plates are washed as described above and incubated for 5 min with 50 μL/well BM Chem ELISA Substrate (Roche). Readout is performed on the Luminoscan Ascent Luminometer (Labsystems) with an integration time of 200 msec or with an Envision reader (Perkin Elmer).
SFs are seeded at a density of 3000 cells/well in 96 well plates. 24 hrs after seeding, increasing concentrations of dexamethasone are added to the cells. […]

[4] = Table 1, 0.6 μM ATP, 30 minutes room temperature
[5] = read-out: MAPKAPK5 IC50, Table 1, 0.6 μM ATP, 30 minutes room temperature

SMILES: NC(=O)c1cc(-c2cnc(Nc3ccc(OCCN4CCOCC4)cc3)c3ncnn23)cs1 [Compound 21, 4-(8-(4-(2-Morpholinoethoxy)phenylamino)-[1,2,4]triazolo[1,5-a]pyrazin-5-yl)thiophene-2-carboxamide]
IC50 [1, 5]: 501 to 1000 nM

SMILES: C[C@@H]1CN(c2ccc(Nc3ncc(-c4csc(C(N)=O)c4)n4ncnc34)cc2)[C@@H](C)CN1C [Compound 32]
EC50 ([2]; Homo sapiens, PBMC, 24 h, Table 5, LPS 1 μg/mL): 101 to 500 nM

SMILES: NC(=O)c1cc(-c2cnc(Nc3ccc(N4CCN(CC5CC5)CC4)nc3)c3ncnn23)cs1 [Compound 54, 4-{8-[6-(4-[Cyclopropylmethyl]piperazin-1-yl)-pyridin-3-ylamino]-[1,2,4]triazolo[1,5-a]pyrazin-5-yl}thiophene-2-carboxylic acid amide]
EC50 ([2]; Table 5, LPS 1 μg/mL, 24 hr, read-out: PBMC EC50): > 1000 nM

SMILES: O=C(NCc1ccc(O)cc1)c1cccc(Nc2ncc(-c3cn[nH]c3)n3ncnc23)c1 [Compound 131, N-(4-Hydroxybenzyl) 3-[5-(1H-pyrazol-4-yl)-[1,2,4]triazolo[1,5-a]pyrazin-8-ylamino]benzamide]
EC50 [3]: > 1000 nM

SMILES: O=C(N[C@@H]1CCN(Cc2ccccc2)C1)c1ccc(Nc2ncc(-c3cn[nH]c3)n3ncnc23)cc1 [Compound 147]
EC50 [3]: > 1000 nM
IC50 [1]: 101 to 500 nM

SMILES: CN(C)Cc1cc(Nc2ncc(-c3ccc4c(c3)CNC4=O)n3ncnc23)ccc1N1CCNCC1 [Compound 175]
IC50 [1]: 101 to 500 nM

SMILES: O=C(N[C@H]1CCN(Cc2ccccc2)C1)c1ccc(Nc2ncc(-c3cn[nH]c3)n3ncnc23)cc1 [Compound 191]
EC50 [3]: > 1000 nM

Second part, the compound after the results:

MAPKAPK5 IC50 (nM) [1, 4]: =
SMILES: NC(=O)c1c(F)cc(-c2cnc(Nc3ccc(N4CCOCC4)cc3)c3ncnn23)cc1F [Compound 14]

MAPKAPK5 IC50 (nM) [1, 4]: =
SMILES: Clc1cc(Nc2ncc(-c3cn[nH]c3)n3ncnc23)ccc1N1CCOCC1 [Compound 18]

IC50 [1, 5]: > 1000 nM
SMILES: NC(=O)c1ccc(-c2cnc(Nc3ccc(OCCN4CCOCC4)cc3)c3ncnn23)s1 [Compound 22, 5-(8-(4-(2-Morpholinoethoxy)phenylamino)-[1,2,4]triazolo[1,5-a]pyrazin-5-yl)thiophene-2-carboxamide]

MAPKAPK5 IC50 (nM) [1, 4]: =
SMILES: CC(C)N1CCN(c2ccc(Nc3ncc(-c4cc(F)c(C(N)=O)c(F)c4)n4ncnc34)cc2)CC1 [Compound 26]

IC50 [1]: 101 to 500 nM
SMILES: CCN1CCCC1CNC(=O)c1ccc(Nc2ncc(-c3cn[nH]c3)n3ncnc23)cc1 (centres unmarked) [Compound 163]

IC50 [1]: 101 to 500 nM
SMILES: CC(C)N1CCC(c2ccc(Nc3ncc(-c4cnc5c(c4)CNC5=O)n4ncnc34)cc2)CC1 [Compound 190]
